Laboratory results: US20120034250A1, “CONDENSED PYRROLOPYRIDINE DERIVATIVE” (Astellas Pharma Inc., priority 2009, published 2012)

Columns and labels:
[1] = biological target: T1, human JAK1 kinase domain (Homo sapiens, UniProt P23458); assay: JAK inhibition test: measurement of JAK1 activity; format: biochemical; conditions: 500 μM ATP, absorbance at 450 nm
T1 construct: attached to the N-terminal of the 850 to 1154 (C-terminal) fragment of the human JAK1 protein; GST (N); purchased Carna Biosciences, Inc. (Kobe, Japan); host or cells: baculovirus expression system
T1 sequence (P23458 850-1154): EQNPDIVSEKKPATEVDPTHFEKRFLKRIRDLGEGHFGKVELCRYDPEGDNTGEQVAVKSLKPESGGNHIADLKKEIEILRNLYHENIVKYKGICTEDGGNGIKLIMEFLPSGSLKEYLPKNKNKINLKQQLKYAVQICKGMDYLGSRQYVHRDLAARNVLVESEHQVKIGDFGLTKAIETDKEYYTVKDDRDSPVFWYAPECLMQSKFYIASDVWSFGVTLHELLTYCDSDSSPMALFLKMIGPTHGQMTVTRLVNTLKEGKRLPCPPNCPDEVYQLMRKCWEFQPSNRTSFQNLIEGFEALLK
Excerpt: (1) Preparation of Human JAK1
A purified human JAK1 kinase domain was purchased from Carna Biosciences, Inc. (Kobe, Japan). This was obtained as follows. A GST tag (62 kDa) was attached to the N-terminal of the 850 to 1154 (C-terminal) fragment of the human JAK1 protein (accession number #BAD92294.1), expressed using a baculovirus expression system, and then purified using Glutathion Sepharose chromatography.
(2) Measurement of JAK 1 Activity
(§1) As substrates, Biotin-Lyn-Substrate-2 (Biotin-XEQED EPEGF YFEWL EPE, X=ε−Acp (Peptide Institute, Inc., Osaka, Japan) and ATP were used. As an assay buffer, 15 mM Tris-HCl pH 7.5 containing 0.01% Tween 20 and 2 mM DTT was used. Normally, 20 μL of a substrate solution (an assay buffer containing 627 nM Biotin-Lyn-Substrate-2, 500 μM ATP, and 25 mM MgCl2), an assay buffer containing 10 μL of a test compound, and 20 μL of an enzyme solution were added to a microplate, and stirred sufficiently.
(§2) After incubation at room temperature for 1 hour, the plate was washed with a cleaning buffer (50 mM Tris-HCl pH 7.5, 150 mM NaCl, 0.02% Tween 20), and a blocking buffer (a cleaning buffer containing 0.1% bovine serum albumin) was added to the plate. After incubation at room temperature for 30 minutes, the blocking buffer was removed, and an HRP-PY-20 solution (obtained by diluting HRP-PY-20 solution with the blocking buffer 500 times) was added. After incubation at room temperature for 30 minutes, the plate was washed four times, and a TMB substrate solution (Sigma) was added to the plate. After incubation at room temperature for 4 minutes, 1 M sulfuric acid was added to stop the reaction. Enzyme activity was measured with an absorbance at 450 nm. The JAK1 inhibitory activity of the test compound was calculated by taking the concentration of the test compound which inhibits the JAK1 activity by 50% as an IC50 value.

[2] = biological target: T2, human JAK2 kinase domain (Homo sapiens, UniProt O60674); assay: JAK inhibition test: measurement of JAK2 activity; format: biochemical; conditions: 25 μM ATP, absorbance at 450 nm
T2 construct: attached to the N-terminal of the 826 to 1132 (C-terminal) fragment of the human JAK2 protein; His tag (N); purchased Carna Biosciences, Inc. (Kobe, Japan); host or cells: baculovirus expression system
T2 sequence (O60674 826-1132): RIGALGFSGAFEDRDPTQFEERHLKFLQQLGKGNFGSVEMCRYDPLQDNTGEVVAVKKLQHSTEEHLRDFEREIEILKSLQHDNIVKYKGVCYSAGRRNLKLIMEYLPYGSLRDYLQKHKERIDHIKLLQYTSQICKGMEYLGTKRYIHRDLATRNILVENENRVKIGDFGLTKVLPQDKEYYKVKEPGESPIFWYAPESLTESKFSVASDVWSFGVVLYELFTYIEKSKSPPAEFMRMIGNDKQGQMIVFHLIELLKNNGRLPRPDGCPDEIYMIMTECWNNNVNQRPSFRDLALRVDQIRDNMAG
Excerpt: (3) Preparation of Human JAK2
(§3) A purified human JAK2 kinase domain was purchased from Carna Biosciences, Inc. (Kobe, Japan). This was obtained as follows. A His tag (39 kDa) was attached to the N-terminal of the 826 to 1132 (C-terminal) fragment of the human JAK2 protein (accession number #NP_004963.1), expressed using a baculovirus expression system, and then purified using Ni-NTA affinity column chromatography.
(4) Measurement of JAK2 Activity
as §1, with “25” for “500”
as §2, with “JAK2” for “JAK1”

[3] = biological target: T3, human JAK3 kinase domain (Homo sapiens, UniProt P52333); assay: JAK inhibition test: measurement of JAK3 activity; format: biochemical; conditions: 20 μM ATP, absorbance at 450 nm
T3 construct: attached to the N-terminal of the 796 to 1124 (C-terminal) fragment of the human JAK3 protein; His tag (N); purchased Carna Biosciences, Inc. (Kobe, Japan); host or cells: baculovirus expression system
T3 sequence (P52333 796-1124): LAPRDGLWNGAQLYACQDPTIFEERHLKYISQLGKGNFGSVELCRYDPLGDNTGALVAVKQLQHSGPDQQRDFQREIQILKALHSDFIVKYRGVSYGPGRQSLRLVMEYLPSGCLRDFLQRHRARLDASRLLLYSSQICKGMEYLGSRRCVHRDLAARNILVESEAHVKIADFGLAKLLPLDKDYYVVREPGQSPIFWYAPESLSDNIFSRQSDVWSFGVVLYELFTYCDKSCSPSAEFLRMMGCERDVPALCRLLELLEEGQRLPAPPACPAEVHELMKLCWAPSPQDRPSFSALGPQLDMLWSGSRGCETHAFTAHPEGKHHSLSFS
Excerpt: (5) Preparation of Human JAK3
as §3, with “JAK3” for “JAK2”, “(41” for “(39”, “796” for “826”, “1124” for “1132”, “#NM_000215),” for “#NP_004963.1),”
(6) Measurement of JAK3 Activity
as §1, with “20” for “500”, “solution” for “solution were added to a microplate, and stirred sufficiently.”
as §2, with “JAK3” for “JAK1”

[4] = tested on: stat5 phosphorylation of CD3+lymphocytes in the blood; assay: Measurement of PD activity (stat5 phosphorylation in blood after oral dosing); format: in vivo, rat; conditions: 20 mg/kg orally to normal rats, blood collected 4 hours later, cytokine stimulation, FACS
Protocol: Measurement of PD activity was carried out by evaluating the degree of stat5 phosphorylation of CD3+lymphocytes in the blood.
Compounds at (20 mg/kg) were orally administered to normal rats, and 4 hours later, 200 μL of blood was collected therefrom. For phosphorylation of stat5, stimulating cytokines (IL-2, 7, 15, etc., Peprotec) were added thereto, and CD3 antibodies fluorescently labeled (BD pharmingen) was added at a dose of 1/20, followed by incubation at 37° C. 5 mL of a lysing buffer (BD Pharmingen) was added to stop the reaction, and then washed by the addition of PBS (−) (Phosphate Buffered Saline (−), manufactured by Shin Yang Chemical Industries, Ltd.). 300 μL of a permeabilization buffer (BD Pharmingen) was added thereto, followed by immobilization on ice. The resultant was washed with a FACS buffer, and then fluorescently-labeled phosphorylation stat5 antibodies (BD Pharmingen) were added thereto, followed by further incubation at room temperature. After incubation, the cells were washed with a FACS buffer, insoluble materials were removed through a filter. Fluorescence measurement was carried out using a FACScalibur. For an individual of each rat, a sample with addition of cytokine and a sample without addition of cytokine were prepared, and a difference of the respective average fluorescence intensities (AMFI) was determined. As a control, the blood of rats to which the compound had not been administered was used, and an inhibitory rate was calculated from the average fluorescence intensity of the respective group of the samples to which the compound had been added, relative to the average fluorescence intensity of the control sample (Inhibitory Rate (%)=100*(1−(ΔMFI of Sample)/(ΔMFI of Control)).

[5] = tested on: heart transplantation rejection; assay: Rat heart transplantation (heterotopic, ACI donor to Lewis recipient); format: in vivo; conditions: 20 mg/kg orally once daily for 14 days from transplantation, observed 29 days
Protocol: Heterotopic heart transplantation into the rat abdomen was performed in accordance with reference materials. With regard to the animals, ACI-based male rats were used as donors and Lewis-based male rats were used as recipients. In addition, Lewis rats were fasted the day before the transplant. The test drugs were orally administered at a dose of 20 mg/kg once daily for 14 days from the date of transplantation. For determining the heart transplantation rejection, the heart transplantation was observed daily by palpation for 29 days after transplantation, and stoppage of beating was taken as rejection. The survival period in days was counted until the day before rejection. From the survival period in days, a value of MST (Median Survival Time) was determined.

| SMILES | IC50 [1] [nM] | IC50 [2] [nM] | IC50 [3] [nM] | Inhibition Ratio (stat5 phosphorylation) [4] [%] | MST (Median Survival Time) [5] [days] | melting point |
| --- | --- | --- | --- | --- | --- | --- |
| C[C@@H]1CCN(C(=O)CC#N)C[C@@H]1n1cc(Br)c2cnc3[nH]cc(C#N)c3c21 (racemic) [Example 2-2] | 6.9 | 2.5 | 0.27 |  |  |  |
| C[C@@H]1CCN(C(=O)CC#N)C[C@@H]1n1ccc2cnc3[nH]cc(Br)c3c21 (racemic) [Example 2-4] | 6.8 | 1 | 0.26 |  |  |  |
| C[C@@H]1CCN(C(=O)CC#N)C[C@@H]1n1cc(Br)c2cnc3[nH]ccc3c21 (racemic) [Example 2-5] | 1.1 | 0.6 | 0.3 | 86 |  |  |
| C[C@@H]1CCN(C(=O)CC#N)C[C@@H]1n1ccc2cnc3[nH]ccc3c21 (racemic) [Example 2-7] |  |  |  | 95 | >28 |  |
| C[C@@H]1CCN(C(=O)Cn2cnnn2)C[C@@H]1n1ccc2cnc3[nH]ccc3c21 (racemic) [Example 2-14] | 3.1 | 2.5 | 0.52 |  |  |  |
| Cc1nnnn1CC(=O)N1CC[C@@H](C)[C@@H](n2ccc3cnc4[nH]ccc4c32)C1 (racemic) [Example 2-15] | 4.7 | 2.9 | 1.3 |  |  |  |
| C[C@@H]1CCN(C(=O)CC#N)C[C@@H]1n1cc(-c2ccncc2)c2cnc3[nH]cc(C#N)c3c21 (racemic) [Example 2-17] | 0.76 | 0.53 | 0.41 |  |  |  |
| Cc1cc2cnc3[nH]ccc3c2n1[C@H]1CN(C(=O)CC#N)CC[C@H]1C (racemic) [Example 2-74] |  |  |  | 98 |  |  |
| C[C@@H]1CCN(c2cnc(C#N)cn2)C[C@@H]1n1ccc2cnc3[nH]ccc3c21 (racemic) [Example 4-1] | 7.9 | 3 | 0.88 |  |  |  |
| C[C@@H]1CCN(c2ccc(C#N)cn2)C[C@@H]1n1ccc2cnc3[nH]ccc3c21 (racemic) [Example 4] | 16 | 3.5 | 1.1 |  |  |  |
| C[C@@H]1CCN(C(=O)N(C)CC#N)C[C@@H]1n1ccc2cnc3[nH]ccc3c21 (racemic) [Example 5-1] | 3 | 0.89 | 0.61 |  |  |  |
| C[C@@H]1CCN(S(=O)(=O)N(C)CC#N)C[C@@H]1n1ccc2cnc3[nH]ccc3c21 (racemic) [Example 9-3] |  |  |  | 62 |  |  |
| O[C@]12CC3C[C@H](C1)[C@H](n1ccc4cnc5[nH]ccc5c41)[C@@H](C3)C2 [Example 1, (1S,3R,4R,5s)-4-(dipyrrolo[2,3-b:2′,3′-d]pyridin-1(6H)-yl)adamantan-1-ol] | 6.1 | 1.6 | 1 |  |  |  |
| C[C@@H]1CCN(C(=O)CC#N)C[C@@H]1n1ccc2cnc3[nH]ccc3c21 [Example 2-10] | 0.49 | 0.35 | 0.19 |  | 17 |  |
| C[C@H]1CCN(C(=O)CC#N)C[C@H]1n1ccc2cnc3[nH]cc(C#N)c3c21 [Example 2-18] |  |  |  |  |  | 286 to 290 °C (dec.) |
| C[C@@H]1CCN(C(=O)CC#N)C[C@@H]1n1ccc2cnc3[nH]cc(C#N)c3c21 [Example 2-19] | 3.2 | 1.4 | 0.11 |  |  | 288 to 290 °C (dec.) |
